# From ChEMBL document CHEMBL1201862, “PubChem BioAssay data set” (2004)
# Activity calls are given as the source filed them.
# Tests used:
# [1] = intracellular Trypanosoma cruzi inhibitors in host cells – cell-based, plate reader, cherry-pick samples, set 3, dose response (AID 651818); type: functional;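 further: compounds incubated with infected cells for about four days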
# Cytochrome P450 2C19 = Cytochrome P450 2C19 (Homo sapiens, UniProt P33261); assay: Cytochrome panel assay with activity outcomes. Panel member name: p450-cyp2c19 Compounds with AC50 equal or less than 10 uM are considered active; type: functional; conditions: read-out: AC50
# Sequence of Cytochrome P450 2C19 (P33261 whole entry): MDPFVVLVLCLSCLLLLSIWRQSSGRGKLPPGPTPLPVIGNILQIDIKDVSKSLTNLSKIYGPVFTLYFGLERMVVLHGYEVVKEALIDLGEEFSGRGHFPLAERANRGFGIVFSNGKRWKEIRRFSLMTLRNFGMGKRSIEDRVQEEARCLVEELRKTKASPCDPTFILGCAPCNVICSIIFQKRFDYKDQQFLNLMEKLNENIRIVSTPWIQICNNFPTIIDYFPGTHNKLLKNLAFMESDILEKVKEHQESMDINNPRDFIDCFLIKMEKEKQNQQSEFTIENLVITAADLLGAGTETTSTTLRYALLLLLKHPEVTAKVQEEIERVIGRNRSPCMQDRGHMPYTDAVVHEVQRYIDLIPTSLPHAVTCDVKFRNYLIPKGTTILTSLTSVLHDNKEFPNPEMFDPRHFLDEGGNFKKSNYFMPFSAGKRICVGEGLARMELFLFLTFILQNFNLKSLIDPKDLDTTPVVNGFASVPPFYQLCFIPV
# Cytochrome P450 2C9 [2] = molecular target: T1, Cytochrome P450 2C9 (Homo sapiens, UniProt P11712)
# T1 sequence (P11712 whole entry): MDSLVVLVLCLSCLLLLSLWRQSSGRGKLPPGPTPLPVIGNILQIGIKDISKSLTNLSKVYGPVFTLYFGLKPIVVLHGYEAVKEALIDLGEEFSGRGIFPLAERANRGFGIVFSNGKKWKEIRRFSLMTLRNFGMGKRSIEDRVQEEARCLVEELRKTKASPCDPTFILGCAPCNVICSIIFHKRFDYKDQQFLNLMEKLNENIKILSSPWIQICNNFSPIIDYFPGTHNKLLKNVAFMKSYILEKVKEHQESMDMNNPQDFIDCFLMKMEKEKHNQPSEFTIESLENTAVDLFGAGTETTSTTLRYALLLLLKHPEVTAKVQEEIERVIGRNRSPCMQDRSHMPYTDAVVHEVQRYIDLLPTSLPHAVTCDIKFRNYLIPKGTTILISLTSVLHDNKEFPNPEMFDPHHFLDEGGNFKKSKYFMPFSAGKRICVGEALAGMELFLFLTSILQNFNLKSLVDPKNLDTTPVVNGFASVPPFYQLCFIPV
# [3] = Shn3 3'UTR reporter inhibitors, dose response, cell-based, Clone20 osteoblasts, firefly luciferase, cherry-picked (AID 624132); type: functional;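 further: firefly luciferase luminescence from reporter carrying the Shn3 3'UTR in osteoblasts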
# Nonstructural protein 1 = Nonstructural protein 1 (Influenza A virus, UniProt Q194T2); type: functional, Influenza A virus (A/California/07/2009(H1N1))
# Sequence of Nonstructural protein 1 (Q194T2 whole entry): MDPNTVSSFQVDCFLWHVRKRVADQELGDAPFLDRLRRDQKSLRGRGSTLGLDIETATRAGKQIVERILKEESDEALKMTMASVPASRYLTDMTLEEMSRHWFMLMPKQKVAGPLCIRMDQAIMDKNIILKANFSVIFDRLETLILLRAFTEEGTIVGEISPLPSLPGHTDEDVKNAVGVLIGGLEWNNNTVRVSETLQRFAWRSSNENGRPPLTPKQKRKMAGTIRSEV
# [4] = HepG2 cell cytotoxicity, dose response, cytotoxicity control for Shn3 inhibitor project, CellTiter-Glo, cherry-picked (AID 624134); type: functional, cell-based
# [5] = control 3'UTR Renilla luciferase suppression, dose response, counter-screen for Shn3 inhibitor project, cell-based, Clone20-Shn3RL, cherry-picked (AID 624133); type: functional
# H9c2 = assay: cells; type: functional, cell-based; conditions: Rattus norvegicus, H9c2, Myocardium;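 further: confirmatory concentration-response retest of ultra-high-throughput screening hits for modulation of myocardial damage; cell death induced by hydrogen peroxide oxidative stress; compound pretreatment for 60 min then peroxide exposure for 2 h; potency is for protecting the cells against peroxide damage rather than for killing them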
# [6] = inhibitors of clade B AD8 Env fusion, dose response, cell-based, cherry-pick (AID 652062); type: functional;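 further: luciferase signal from cell-cell fusion driven by HIV-1 clade B AD8 Env; potency is for inhibitors of fusion seen as a drop in luminescence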
# [7] = ZM109 Env clade C HIV-1 fusion inhibitors, dose response, HeLa effector, CEM target cells, luciferase, cherry-pick (AID 652058); type: functional, cell-based
# [8] = inhibitors of HIV Env-driven cell fusion, dose response, cherry-pick (AID 652057); type: functional, cell-based
# [9] = molecular target: Induced myeloid leukemia cell differentiation protein Mcl-1 (Homo sapiens, UniProt Q07820); type: functional
# Sequence of Induced myeloid leukemia cell differentiation protein Mcl-1 (Q07820 whole entry): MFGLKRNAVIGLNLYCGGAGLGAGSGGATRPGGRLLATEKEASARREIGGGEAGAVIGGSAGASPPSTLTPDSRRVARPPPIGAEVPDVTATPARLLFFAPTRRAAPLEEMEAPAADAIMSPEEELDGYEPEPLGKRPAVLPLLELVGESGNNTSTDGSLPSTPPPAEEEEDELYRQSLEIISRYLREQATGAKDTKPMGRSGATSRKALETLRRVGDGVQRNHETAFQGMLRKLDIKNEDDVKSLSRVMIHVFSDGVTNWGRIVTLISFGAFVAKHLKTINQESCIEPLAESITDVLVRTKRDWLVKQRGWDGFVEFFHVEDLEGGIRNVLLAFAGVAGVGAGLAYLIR
# [10] = molecular target: FAD-linked sulfhydryl oxidase ALR (Homo sapiens, UniProt P55789); assay: inhibitors of human ALR sulfhydryl oxidase, dose response, biochemical, H2O2 detection, luminescence, cherry-pick (AID 493248)
# Sequence of FAD-linked sulfhydryl oxidase ALR (P55789 whole entry): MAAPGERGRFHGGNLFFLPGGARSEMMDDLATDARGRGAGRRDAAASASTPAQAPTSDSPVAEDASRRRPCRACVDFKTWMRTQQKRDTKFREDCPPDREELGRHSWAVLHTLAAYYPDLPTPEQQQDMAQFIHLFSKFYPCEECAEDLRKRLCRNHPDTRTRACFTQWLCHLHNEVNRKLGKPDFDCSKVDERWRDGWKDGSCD
# [11] = HEp-2 cell cytotoxicity, dose response, cytotoxicity control for RSV inhibitor project, HTS (AID 2410); type: functional; conditions: human respiratory syncytial virus
# Cytochrome P450 1A2 = molecular target: T2, Cytochrome P450 1A2 (Homo sapiens, UniProt P05177);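 further: PubChem cytochrome P450 panel assay, CYP1A2 panel member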
# T2 sequence (P05177 whole entry): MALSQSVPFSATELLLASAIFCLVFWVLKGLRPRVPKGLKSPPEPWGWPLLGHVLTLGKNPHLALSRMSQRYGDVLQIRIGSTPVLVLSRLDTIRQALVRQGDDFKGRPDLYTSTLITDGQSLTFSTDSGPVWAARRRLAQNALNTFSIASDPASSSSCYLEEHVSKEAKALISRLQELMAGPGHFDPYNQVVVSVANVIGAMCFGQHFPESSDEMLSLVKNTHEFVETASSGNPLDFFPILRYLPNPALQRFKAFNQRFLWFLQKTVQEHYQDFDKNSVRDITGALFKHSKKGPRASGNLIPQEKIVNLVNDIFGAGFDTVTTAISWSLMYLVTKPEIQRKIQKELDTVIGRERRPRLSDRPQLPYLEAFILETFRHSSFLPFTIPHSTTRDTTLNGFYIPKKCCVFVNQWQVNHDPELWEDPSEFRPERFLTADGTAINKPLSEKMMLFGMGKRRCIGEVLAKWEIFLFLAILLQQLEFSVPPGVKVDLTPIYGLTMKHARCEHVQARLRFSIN
# [12] = Luminescence Cell-Based Dose Response HTS to Identify Inhibitors of 5'UTR Stem-Loop Driven Prion Protein mRNA Translation in H4 Neuroglioblastoma Cells. [Related pubchem assays: 1827 (Project Summary), 1813 (Primary HTS)]; type: functional
# INS1 = assay: beta cell apoptosis inhibitors, cytokine rescue, dose response, luminescence, retest (AID 449756); type: functional, cell-based; conditions: Rattus norvegicus;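 further: cell death triggered by IL-1 beta plus TNF-alpha plus IFN-gamma mixture; protective hits raise ATP signal compared with cytokine alone wells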
# [13] = inhibitors of SNCA 5'UTR-driven reporter translation, confirmation, H4 neuroglioma cells, luminescence (AID 1988); type: functional, cell-based
# [14] = cytotoxicity toward NIH3T3 fibroblasts, dose response, counter-screen, cell-based, ATP luminescence, mouse fibroblasts (AID 2010); type: functional;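 further: cells exposed to compound for about 90 hours before reading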
# [15] = inhibitors of intracellular T. cruzi replication, confirmation, NIH3T3 host cells, beta-gal luminescence (AID 2044); type: functional, cell-based;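 further: intracellular parasites grown in NIH/3T3 mouse fibroblasts as host cells; luminescent beta-galactosidase reporter signal from transgenic T. cruzi replicating inside host cells; inhibitors lower the luminescence signal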
# [16] = system: Streptococcus sp. 'group A'; assay: growth inhibition of control SK(-) GAS strain, dose response, counter-screen for streptokinase expression inhibitor project, luminescence, kanamycin, BacTiterGlo, confirmation (AID 1900); type: functional, organism-based
# [17] = inhibitors of firefly luciferase expression or activity, dose response, H4 neuroglioma cells, luminescence (AID 1990); type: functional, cell-based
# Streptokinase A = molecular target: T3, Streptokinase A (Streptococcus pyogenes serotype M1, UniProt P10520); assay: S. pyogenes streptokinase expression inhibitors, potency, dose response, plasminogen activation absorbance, OD405 (AID 1914); type: functional, Streptococcus pyogenes M1 GAS;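 further: secreted streptokinase activity via plasminogen activation per viability signal from cell pellet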
# T3 sequence (P10520 whole entry): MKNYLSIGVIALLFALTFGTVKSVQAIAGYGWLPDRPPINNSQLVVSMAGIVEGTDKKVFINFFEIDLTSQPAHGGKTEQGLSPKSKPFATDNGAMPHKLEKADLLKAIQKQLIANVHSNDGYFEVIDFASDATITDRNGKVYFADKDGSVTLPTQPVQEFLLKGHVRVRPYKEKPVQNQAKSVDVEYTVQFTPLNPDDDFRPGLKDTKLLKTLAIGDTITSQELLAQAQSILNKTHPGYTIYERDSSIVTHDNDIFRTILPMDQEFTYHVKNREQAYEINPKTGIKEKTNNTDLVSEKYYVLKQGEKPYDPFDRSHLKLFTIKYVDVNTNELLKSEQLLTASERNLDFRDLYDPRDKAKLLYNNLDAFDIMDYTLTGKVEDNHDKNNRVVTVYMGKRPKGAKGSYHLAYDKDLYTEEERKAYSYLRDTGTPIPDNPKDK
# Streptococcus = assay: Group A Streptococcus viability loss, dose response, counter-screen for streptokinase expression inhibitor project, luminescence, BacTiterGlo (AID 1915); type: functional, organism-based;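 further: potency for reduction of bacterial viability or growth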
# Cytochrome P450 3A4 = Cytochrome P450 3A4 (Homo sapiens, UniProt P08684);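 further: CYP3A4 tested as one member of a cytochrome P450 panel screen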
# Sequence of Cytochrome P450 3A4 (P08684 whole entry): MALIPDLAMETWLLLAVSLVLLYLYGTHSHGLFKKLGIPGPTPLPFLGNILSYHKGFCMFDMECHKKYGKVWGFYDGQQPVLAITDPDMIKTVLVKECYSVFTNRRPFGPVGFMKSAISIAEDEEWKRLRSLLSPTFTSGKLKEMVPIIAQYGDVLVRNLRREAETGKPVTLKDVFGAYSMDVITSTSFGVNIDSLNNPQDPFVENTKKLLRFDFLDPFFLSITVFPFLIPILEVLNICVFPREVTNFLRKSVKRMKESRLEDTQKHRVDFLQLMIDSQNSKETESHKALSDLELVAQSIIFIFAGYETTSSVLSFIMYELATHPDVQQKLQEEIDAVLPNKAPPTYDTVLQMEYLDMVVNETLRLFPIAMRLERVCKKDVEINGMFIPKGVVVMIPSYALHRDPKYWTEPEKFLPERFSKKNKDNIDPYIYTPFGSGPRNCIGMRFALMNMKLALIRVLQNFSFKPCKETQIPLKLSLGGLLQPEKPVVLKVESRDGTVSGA
# Cytochrome P450 2C9 [18] = molecular target: T1, Cytochrome P450 2C9; remark: listed apart in the source
# [19] = molecular target: T4, Rac GTPase-activating protein 1 (Homo sapiens, UniProt Q9H0H5); assay: MgcRacGAP GTPase-activating activity inhibitors, confirmation, biochemical, ADP Hunter fluorescence, primary and confirmatory (AID 624330); type: functional
# T4 sequence (Q9H0H5 whole entry): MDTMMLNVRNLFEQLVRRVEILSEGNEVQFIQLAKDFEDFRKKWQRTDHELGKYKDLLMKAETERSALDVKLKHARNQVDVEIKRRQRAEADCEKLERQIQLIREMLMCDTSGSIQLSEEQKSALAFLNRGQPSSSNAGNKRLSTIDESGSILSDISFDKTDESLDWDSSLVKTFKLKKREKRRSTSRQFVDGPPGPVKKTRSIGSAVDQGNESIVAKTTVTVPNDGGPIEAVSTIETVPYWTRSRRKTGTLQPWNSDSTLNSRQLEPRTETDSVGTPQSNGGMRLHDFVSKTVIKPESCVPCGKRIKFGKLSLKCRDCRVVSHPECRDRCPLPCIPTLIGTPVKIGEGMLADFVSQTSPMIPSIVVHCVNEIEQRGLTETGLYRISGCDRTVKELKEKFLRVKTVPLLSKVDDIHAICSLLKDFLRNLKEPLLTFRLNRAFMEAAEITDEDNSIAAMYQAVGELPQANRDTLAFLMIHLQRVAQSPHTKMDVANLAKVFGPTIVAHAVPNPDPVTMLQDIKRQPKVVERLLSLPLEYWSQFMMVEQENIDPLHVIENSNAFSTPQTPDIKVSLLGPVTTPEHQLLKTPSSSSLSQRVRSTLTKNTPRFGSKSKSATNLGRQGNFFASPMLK
smiles,measurement,setting,value
C[C@H]1CN([C@@H](C)CO)C(=O)Cc2cc(NC(=O)C3CCCCC3)ccc2O[C@@H]1CN(C)Cc1ccc2c(c1)OCO2,AC50,[1],2.81 µM (active)
C[C@@H]1CN([C@H](C)CO)C(=O)Cc2cc(NC(=O)Nc3ccc(C(F)(F)F)cc3)ccc2O[C@H]1CN(C)Cc1ccc(C(F)(F)F)cc1,AC50,[1],6.59 µM (active)
Brc1[nH]nc2ccccc12,AC50,Cytochrome P450 2C19,11.2 µM (inconclusive)
same,AC50,Cytochrome P450 2C9 [2],inconclusive
Oc1cc(-c2cccnc2)cc2cccnc12,AC50,[3],9.27 µM (active)
same,IC50,Nonstructural protein 1,15.6 µM (active)
same,AC50,[4],10.9 µM (active)
same,AC50,[5],4.04 µM (active)
CC(=O)NCCNc1nc2c(-c3ccccc3)nnn2c2ccccc12,IC50,H9c2,> 79 µM (inactive)
Cc1noc(C)c1S(=O)(=O)N(C)C[C@@H]1Oc2ccc(NC(=O)NC3CCCCC3)cc2CC(=O)N([C@@H](C)CO)C[C@@H]1C,AC50,[6],5.37 µM (active)
same,AC50,[7],7.36 µM (active)
same,AC50,[8],9.11 µM (active)
Cc1nn(Cc2ccc(F)cc2)c2sc(C(=O)Nc3ccc(N4CCOCC4)cc3N3CCOCC3)cc12,IC50,[9],2.73 µM (not active)
C[C@@H]1CN([C@H](C)CO)C(=O)Cc2cc(NC(=O)Nc3ccc(C(F)(F)F)cc3)ccc2O[C@@H]1CN(C)Cc1ccncc1,AC50,[1],2.05 µM (active)
Sc1nnc(-c2ccccn2)n1/N=C/c1ccc(-c2ccccc2Cl)o1,AC50,[10],5.29 µM (active)
same,CC50,[11],> 50 µM (active)
Cc1[nH]n(-c2ccccc2)c(=O)c1CCOC(=O)c1cccc(C(F)(F)F)c1,AC50,Cytochrome P450 1A2,22.4 µM (inconclusive)
same,AC50,Cytochrome P450 2C9 [2],inconclusive
Cc1cc(C(=O)COc2ccccc2C(N)=O)c(C)n1C,IC50,H9c2,> 79 µM (inactive)
O=S(=O)(Nc1ccc(N2CCCCC2)cc1)c1cccc2cccnc12,AC50,[10],0.723 µM (active)
CC(=O)c1c(C)[nH]c(C(=O)OCC(=O)Nc2c(C)cccc2C)c1C,AC50,[6],3.02 µM (active)
same,AC50,[7],0.745 µM (active)
O=C(NCC(=O)N(Cc1cccs1)C(C(=O)NC1CCCCC1)c1ccco1)c1ccco1 (centres undefined),IC50,H9c2,7.48 µM (active)
CC(=O)N1CCN=C1SCc1cccc(F)c1,AC50,[10],6.74 µM (active)
COc1cc(C)c(C(=O)CC(=O)c2c(C)cc(OC)cc2C)c(C)c1,AC50,[3],7.4 µM (active)
same,EC50,[12],73.2 µM (active)
same,AC50,INS1,8.81 µM (active)
same,EC50,[13],> 120 µM (not active)
same,EC50,[14],6.5 µM (active)
same,EC50,[15],2.67 µM (active)
same,EC50,[16],3.96 µM (active)
same,EC50,[17],10.7 µM (active)
same,EC50,Streptokinase A,68.7 µM (active)
same,EC50,Streptococcus,> 150 µM (not active)
same,AC50,[4],> 70 µM (inactive)
same,AC50,[5],21.8 µM (active)
CCOC(=O)c1cc2c(=O)n3cccc(C)c3nc2n(CCCOC)/c1=N\C(=O)c1cccnc1,IC50,H9c2,> 79 µM (inactive)
C[C@H]1CN([C@@H](C)CO)C(=O)Cc2cc(N(C)C)ccc2O[C@H]1CN(C)Cc1ccc(C(=O)Nc2ccccc2N)cc1,AC50,[1],1.93 µM (active)
C[C@H](CO)N1C[C@H](C)[C@@H](CN(C)Cc2ccc(Cl)c(Cl)c2)Oc2c(NC(=O)c3ccncc3)cccc2C1=O,AC50,[1],0.08 µM (active)
Cc1ccc(S(=O)(=O)Nc2ccc3c(c2)CC(=O)N([C@H](C)CO)C[C@@H](C)[C@@H](CN(C)S(=O)(=O)c2ccc(C)cc2)O3)cc1,AC50,[1],4.11 µM (active)
O=C(Nc1ccc(N2CCCCC2)cc1)c1cccnc1,AC50,[10],21.6 µM (active)
Cc1nnc2ccc(-c3cccc(NC(=O)c4ccc(Cl)nc4)c3)nn12,IC50,H9c2,> 79 µM (inactive)
COc1ccc([Si](C)(C)[C@@H]2[C@@H](CCO)O[C@]3(C(=O)N4c5c(cc(OC)cc53)C(C)=CC4(C)C)[C@H]2C)cc1,AC50,[6],16.8 µM (active)
same,AC50,[7],17.2 µM (active)
same,AC50,[8],11.8 µM (active)
O=C1CSC(c2ccccn2)N1c1ccccc1 (centres undefined),AC50,[10],0.225 µM (active)
CS/C(=N\S(=O)(=O)c1ccccc1)c1ccccc1,IC50,H9c2,> 79 µM (inactive)
Cc1ccc(N2CCN(C(=O)N3CCCC3)CC2)cc1Cl,AC50,[10],27.2 µM (active)
CCN(CC)S(=O)(=O)c1ccc2c3c(cccc13)C(=O)S2,AC50,Cytochrome P450 3A4,17.8 µM (inconclusive)
same,AC50,Cytochrome P450 2C9 [2],inconclusive
CCN(c1ccc(NC(=O)COC(=O)c2cccs2)cc1)C(C)C,IC50,[9],1.4 µM (not active)
COc1cc(C)c(Br)cc1S(=O)(=O)NCc1ccccc1,AC50,Cytochrome P450 2C9 [2],inconclusive
C[C@H](CO)N1C[C@H](C)[C@H](CN(C)Cc2ccc(Cl)c(Cl)c2)Oc2c(NC(=O)CCCCCC(=O)Nc3ccccc3N)cccc2C1=O,AC50,[1],1.65 µM (active)
CCOc1ccc(C(=O)Nc2cccc(-c3nc4cccnc4o3)c2)cc1Cl,IC50,H9c2,> 79 µM (inactive)
same,AC50,Cytochrome P450 2C19,14.1 µM (inconclusive)
same,AC50,Cytochrome P450 3A4,6.31 µM (inconclusive)
same,AC50,Cytochrome P450 1A2,5.01 µM (inconclusive)
same,AC50,Cytochrome P450 2C9 [18],14.1 µM (inconclusive)
C[C@@H]1CCCCO[C@@H](CN(C)C(=O)Nc2ccc(C(F)(F)F)cc2)[C@@H](C)CN([C@H](C)CO)C(=O)c2cc(NC(=O)Nc3ccc(F)cc3)ccc2O1,AC50,[1],4.68 µM (active)
COc1cnn(-c2ccccc2)c(=O)c1SCc1ccc(Cl)cc1Cl,IC50,[9],1.26 µM (not active)
CN(C)c1ccc(C(=O)NC2(N3CCC3=O)CCCC2)cc1,AC50,[10],2.55 µM (active)
same,IC50,[19],126 µM (active)
O=C1Nc2cnc(Cl)nc2Nc2ccccc21,IC50,H9c2,18.7 µM (active)
C[C@H](CO)N1C[C@H](C)[C@H](CN(C)C(=O)Nc2ccc(F)cc2)Oc2ncc(C#Cc3ccc(C(F)(F)F)cc3)cc2C1=O,AC50,[1],2.59 µM (active)
